Structures are written as SMILES. Converted amounts (≈) assume the structure as drawn. Where only a bound is given, the exact number is not on record here.

One assay relates to E. coli 25922. The assay is described as follows: Antibacterial activity, microbroth dilution MIC (Table 1). It is filed as cell-based, Escherichia coli. The conditions noted are these: Escherichia coli; microbroth dilution; control Gram-negative E. coli 25922 strain; read-out: MIC, 25922. The essentials:
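Broth microdilution; endpoint = no macroscopic growth; value = lowest inhibiting concn, μg/mL.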
For orientation: Broth dilution looks for growth in wells or tubes with falling amounts of substance.

The test system of another assay is E. coli LZ3111. The assay is described as follows: Antibacterial activity, MIC, quinolone resistant strain (Table 2). The conditions noted are these: Escherichia coli, LZ3111, read-out: MIC LZ3111. The class given is cell-based. The essentials: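 MIC values (μg/mL) came from a microbroth dilution assay, scored as the lowest drug concentration at which no growth was visible by eye.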

Assay [1] deals with Escherichia coli (E. coli) BAS849. The experiment in a line: Antibacterial activity, microbroth dilution MIC (Table 1). It is filed as cell-based. The conditions noted are these: microbroth dilution, super sensitive Gram-negative E. coli BAS849, read-out: MIC, BAS849. The method, boiled down:
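Growth inhibition by microbroth dilution. MIC = lowest μg/mL with no visible growth. Strain 25922 is the control Gram-negative; BAS849 is hypersensitive.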

The test system of assay [2] is Staphylococcus aureus (S. aureus) 29213. The description is as above. The class given is cell-based. The conditions noted are these: microbroth dilution, Gram-positive S. aureus 29213, read-out: MIC, 29213. The method, boiled down: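 Using broth microdilution, MIC endpoints (μg/mL) mark where visible growth no longer appears; the panel spans sensitive and control Gram-negative strains plus a Gram-positive strain.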

The term MIC denotes the lowest concentration that inhibits growth of the organism. For the compound `CCc1c(-c2ccc3c(c2)cc(CN[C@H]2[C@@H]4CNC[C@@H]42)n3C)[nH]c(=O)c(C(=O)O)c1O` [Cpd 198, 6-(2-(((1R,5S,6s)-3-azabicyclo[3.1.0]hexan-6-ylamino)methyl)-1-methyl-1H-indol-5-yl)-5-ethyl-4-hydroxy-2-oxo-1,2-dihydropyridine-3-carboxylic acid], the MIC is 12.5 to 150 µg/mL (≈ 29.6 to 355 µM) with E. coli 25922, 12.5 to 150 µg/mL (≈ 29.6 to 355 µM) with E. coli LZ3111, 1 to 3.5 µg/mL (≈ 2.37 to 8.28 µM) in assay [1] and 12.5 to 150 µg/mL (≈ 29.6 to 355 µM) in assay [2].

Regarding `CCc1c(-c2ccc3c(c2)cc(CNCCNC)n3C)[nH]c(=O)c(C(=O)O)c1O` [Cpd 204, 5-ethyl-4-hydroxy-6-(1-methyl-2-((2-(methylamino)ethylamino)methyl)-1H-indol-5-yl)-2-oxo-1,2-dihydropyridine-3-carboxylic acid], the MIC was 3.5 to 12.5 µg/mL (≈ 8.78 to 31.4 µM) in the assay on E. coli 25922, 12.5 to 150 µg/mL (≈ 31.4 to 376 µM) in the assay on E. coli LZ3111, 1 to 3.5 µg/mL (≈ 2.51 to 8.78 µM) in assay [1] and 12.5 to 150 µg/mL (≈ 31.4 to 376 µM) in assay [2].

Take `CCc1c(-c2ccc3c(c2)cc(CNCCN)n3C)[nH]c(=O)c(C(=O)O)c1O` [Cpd 205, 6-(2-((2-aminoethylamino)methyl)-1-methyl-1H-indol-5-yl)-5-ethyl-4-hydroxy-2-oxo-1,2-dihydropyridine-3-carboxylic acid]: the minimum inhibitory concentration (MIC) lay in the range of 12.5 to 150 µg/mL (≈ 32.5 to 390 µM) with E. coli 25922, 12.5 to 150 µg/mL (≈ 32.5 to 390 µM) with E. coli LZ3111, 1 to 3.5 µg/mL (≈ 2.6 to 9.1 µM) in assay [1] and 12.5 to 150 µg/mL (≈ 32.5 to 390 µM) in assay [2].

Regarding `CCc1c(-c2ccc3c(c2)cc(CN2CC(N(C)Cc4ccccc4)C2)n3C)[nH]c(=O)c(C(=O)O)c1O` [Cpd 206, 6-(2-((3-(benzyl(methyl)amino)azetidin-1-yl)methyl)-1-methyl-1H-indol-5-yl)-5-ethyl-4-hydroxy-2-oxo-1,2-dihydropyridine-3-carboxylic acid], the MIC is 3.5 to 12.5 µg/mL (≈ 6.99 to 25 µM) in the assay on E. coli 25922, 12.5 to 150 µg/mL (≈ 25 to 300 µM) in the assay on E. coli LZ3111, under 1 µg/mL in assay [1] and 3.5 to 12.5 µg/mL (≈ 6.99 to 25 µM) in assay [2].

With `CCc1c(-c2ccc3c(c2)cc(CN2CC(N(C)CCN(C)C)C2)n3C)[nH]c(=O)c(C(=O)O)c1O` [Cpd 207, 6-(2-((3-((2-(dimethylamino)ethyl)(methyl)amino)azetidin-1-yl)methyl)-1-methyl-1H-indol-5-yl)-5-ethyl-4-hydroxy-2-oxo-1,2-dihydropyridine-3-carboxylic acid], the MIC was in the range of 12.5 to 150 µg/mL (≈ 26 to 311 µM) in the assay with E. coli 25922, 12.5 to 150 µg/mL (≈ 26 to 311 µM) in the assay on E. coli LZ3111, 1 to 3.5 µg/mL (≈ 2.08 to 7.27 µM) in assay [1] and 12.5 to 150 µg/mL (≈ 26 to 311 µM) in assay [2].

As to `CCc1c(-c2ccc3c(c2)cc(CN(C)C2CC2)n3C)[nH]c(=O)c(C(=O)O)c1O.Cl` [Cpd 212, 6-(2-((cyclopropyl(methyl)amino)methyl)-1-methyl-1H-indol-5-yl)-5-ethyl-4-hydroxy-2-oxo-1,2-dihydropyridine-3-carboxylic acid hydrochloride], the MIC was 1 to 3.5 µg/mL in the assay with E. coli 25922, 12.5 to 150 µg/mL in the assay with E. coli LZ3111, under 1 µg/mL in assay [1] and 1 to 3.5 µg/mL in assay [2].

Consider `CCc1c(-c2ccc3c(c2)cc(CNc2ccccc2)n3C)[nH]c(=O)c(C(=O)O)c1O` [Cpd 213, 5-ethyl-4-hydroxy-6-(1-methyl-2-((phenylamino)methyl)-1H-indol-5-yl)-2-oxo-1,2-dihydropyridine-3-carboxylic acid], for which the MIC is 12.5 to 150 µg/mL (≈ 29.9 to 359 µM) with E. coli 25922, 12.5 to 150 µg/mL (≈ 29.9 to 359 µM) with E. coli LZ3111, under 1 µg/mL in assay [1] and 1 to 3.5 µg/mL (≈ 2.4 to 8.38 µM) in assay [2].

As to `CCc1c(-c2ccc3c(c2)cc(CN[C@H](C)c2ccccc2)n3C)[nH]c(=O)c(C(=O)O)c1O.Cl` [Cpd 215, (R)-5-ethyl-4-hydroxy-6-(1-methyl-2-((1-phenylethylamino)methyl)-1H-indol-5-yl)-2-oxo-1,2-dihydropyridine-3-carboxylic acid hydrochloride], the MIC in the assay with E. coli 25922 is 1 to 3.5 µg/mL; in the assay with E. coli LZ3111, 12.5 to 150 µg/mL; in assay [1], under 1 µg/mL; in assay [2], 1 to 3.5 µg/mL.

In the case of `CCc1c(-c2ccc3c(c2)cc(CN[C@@H](C)c2ccccc2)n3C)[nH]c(=O)c(C(=O)O)c1O.Cl` [Cpd 216, (S)-5-ethyl-4-hydroxy-6-(1-methyl-2-((1-phenylethylamino)methyl)-1H-indol-5-yl)-2-oxo-1,2-dihydropyridine-3-carboxylic acid hydrochloride], the MIC was 1 to 3.5 µg/mL with E. coli 25922, 12.5 to 150 µg/mL in the assay on E. coli LZ3111, under 1 µg/mL in assay [1] and 1 to 3.5 µg/mL in assay [2].

Turning to `CCc1c(-c2ccc3c(c2)cc(CNC(C)(C)c2ccccc2)n3C)[nH]c(=O)c(C(=O)O)c1O.Cl` [Cpd 217, 5-ethyl-4-hydroxy-6-(1-methyl-2-((2-phenylpropan-2-ylamino)methyl)-1H-indol-5-yl)-2-oxo-1,2-dihydropyridine-3-carboxylic acid hydrochloride], the minimal inhibitory concentration (MIC) was 1 to 3.5 µg/mL in the assay with E. coli 25922, 12.5 to 150 µg/mL in the assay on E. coli LZ3111, under 1 µg/mL in assay [1] and 1 to 3.5 µg/mL in assay [2].

Consider `CCc1c(-c2ccc3c(c2)cc(CN(C)Cc2ccccc2)n3C)[nH]c(=O)c(C(=O)O)c1O.Cl` [Cpd 218, 6-(2-((benzyl(methyl)amino)methyl)-1-methyl-1H-indol-5-yl)-5-ethyl-4-hydroxy-2-oxo-1,2-dihydropyridine-3-carboxylic acid hydrochloride], for which the MIC in the assay on E. coli 25922 was 12.5 to 150 µg/mL; with E. coli LZ3111, 12.5 to 150 µg/mL; in assay [1], under 1 µg/mL; in assay [2], 3.5 to 12.5 µg/mL.

In the case of `CCc1c(-c2ccc3c(c2)cc(CNCC2CCCCC2)n3C)[nH]c(=O)c(C(=O)O)c1O.Cl` [Cpd 222, 6-(2-((cyclohexylmethylamino)methyl)-1-methyl-1H-indol-5-yl)-5-ethyl-4-hydroxy-2-oxo-1,2-dihydropyridine-3-carboxylic acid hydrochloride], the MIC with E. coli 25922 was under 1 µg/mL; in the assay on E. coli LZ3111, 12.5 to 150 µg/mL; in assay [1], under 1 µg/mL; in assay [2], 1 to 3.5 µg/mL.

As for `CCc1c(-c2ccc3c(c2)cc(CN(C)Cc2cccnc2)n3C)[nH]c(=O)c(C(=O)O)c1O.Cl` [Cpd 224, 5-ethyl-4-hydroxy-6-(1-methyl-2-((methyl(pyridin-3-ylmethyl)amino)methyl)-1H-indol-5-yl)-2-oxo-1,2-dihydropyridine-3-carboxylic acid hydrochloride], the MIC in the assay with E. coli 25922 was 1 to 3.5 µg/mL; with E. coli LZ3111 it was 12.5 to 150 µg/mL; in assay [1] it was under 1 µg/mL; in assay [2] it was 3.5 to 12.5 µg/mL.

As to `CCc1c(-c2ccc3c(c2)cc(CN(C)Cc2ccncc2)n3C)[nH]c(=O)c(C(=O)O)c1O.Cl` [Cpd 225, 5-ethyl-4-hydroxy-6-(1-methyl-2-((methyl(pyridin-4-ylmethyl)amino)methyl)-1H-indol-5-yl)-2-oxo-1,2-dihydropyridine-3-carboxylic acid hydrochloride], the MIC in the assay on E. coli 25922 was 3.5 to 12.5 µg/mL; with E. coli LZ3111 it was 12.5 to 150 µg/mL; in assay [1], under 1 µg/mL; in assay [2] it was 3.5 to 12.5 µg/mL.

Take `CCc1c(-c2ccc3c(c2)cc(CNC(C)c2ccncc2)n3C)[nH]c(=O)c(C(=O)O)c1O.Cl` (centres unmarked) [Cpd 226, 5-ethyl-4-hydroxy-6-(1-methyl-2-((1-(pyridin-4-yl)ethylamino)methyl)-1H-indol-5-yl)-2-oxo-1,2-dihydropyridine-3-carboxylic acid hydrochloride]: the minimum inhibitory concentration (MIC) with E. coli 25922 was 1 to 3.5 µg/mL; in the assay on E. coli LZ3111 it was 12.5 to 150 µg/mL; in assay [1], under 1 µg/mL; in assay [2], 1 to 3.5 µg/mL.

Turning to `CCc1c(-c2ccc3c(c2)cc(CNCC(C)(C)C)n3C)[nH]c(=O)c(C(=O)O)c1O.Cl` [Cpd 237, 5-ethyl-4-hydroxy-6-(1-methyl-2-((neopentylamino)methyl)-1H-indol-5-yl)-2-oxo-1,2-dihydropyridine-3-carboxylic acid hydrochloride], the MIC was 1 to 3.5 µg/mL in the assay on E. coli 25922, 12.5 to 150 µg/mL in the assay with E. coli LZ3111, under 1 µg/mL in assay [1] and 3.5 to 12.5 µg/mL in assay [2].

Take `CCc1c(-c2ccc3c(c2)cc(CNC(C)c2cccnc2)n3C)[nH]c(=O)c(C(=O)O)c1O.Cl` (centres unmarked) [Cpd 242, 5-ethyl-4-hydroxy-6-(1-methyl-2-((1-(pyridin-3-yl)ethylamino)methyl)-1H-indol-5-yl)-2-oxo-1,2-dihydropyridine-3-carboxylic acid hydrochloride]: the MIC in the assay with E. coli 25922 was 1 to 3.5 µg/mL; in the assay on E. coli LZ3111, 12.5 to 150 µg/mL; in assay [1], under 1 µg/mL; in assay [2], 1 to 3.5 µg/mL.

For the compound `CCc1c(-c2ccc3c(c2)cc(CNC2CNC2)n3C)[nH]c(=O)c(C(=O)O)c1O.Cl.Cl` [Cpd 244, 6-(2-((azetidin-3-ylamino)methyl)-1-methyl-1H-indol-5-yl)-5-ethyl-4-hydroxy-2-oxo-1,2-dihydropyridine-3-carboxylic acid dihydrochloride], the MIC in the assay with E. coli 25922 lay in the range of 12.5 to 150 µg/mL; in the assay on E. coli LZ3111 it was 12.5 to 150 µg/mL; in assay [1], 1 to 3.5 µg/mL; in assay [2], 12.5 to 150 µg/mL.

As to `CCc1c(-c2ccc3c(c2)cc(CNC2CN(C)C2)n3C)[nH]c(=O)c(C(=O)O)c1O.Cl.Cl` [Cpd 246, 5-ethyl-4-hydroxy-6-(1-methyl-2-((1-methylazetidin-3-ylamino)methyl)-1H-indol-5-yl)-2-oxo-1,2-dihydropyridine-3-carboxylic acid dihydrochloride], the MIC fell in the range of 12.5 to 150 µg/mL with E. coli 25922, 3.5 to 12.5 µg/mL with E. coli LZ3111, 1 to 3.5 µg/mL in assay [1] and 12.5 to 150 µg/mL in assay [2].

For `CCc1c(-c2ccc3c(c2)cc(CN2CCC(F)(F)CC2)n3C)[nH]c(=O)c(C(=O)O)c1O` [Cpd 249, 6-(2-((4,4-difluoropiperidin-1-yl)methyl)-1-methyl-1H-indol-5-yl)-5-ethyl-4-hydroxy-2-oxo-1,2-dihydropyridine-3-carboxylic acid], the MIC in the assay with E. coli 25922 was 12.5 to 150 µg/mL (≈ 28.1 to 337 µM); with E. coli LZ3111, 12.5 to 150 µg/mL (≈ 28.1 to 337 µM); in assay [1], under 1 µg/mL; in assay [2], 1 to 3.5 µg/mL (≈ 2.24 to 7.86 µM).

The values above are taken from US9409905B2, “Antibacterial compounds and methods for use” (PTC THERAPEUTICS, INC., priority 2011, dated 2016).
